Experimental data: ChEMBL document CHEMBL1240295, “Specificity and mechanism of action of some commonly used protein kinase inhibitors” (Biochem J, 2000)

Assays:
[1] = target: T1, Serine/threonine-protein kinase Sgk1 (Homo sapiens) (UniProt O00141); assay: Inhibition of His-tagged human SGK expressed in Sf9 cells at 1 uM; conditions: values are per cent of control
T1 sequence (whole entry): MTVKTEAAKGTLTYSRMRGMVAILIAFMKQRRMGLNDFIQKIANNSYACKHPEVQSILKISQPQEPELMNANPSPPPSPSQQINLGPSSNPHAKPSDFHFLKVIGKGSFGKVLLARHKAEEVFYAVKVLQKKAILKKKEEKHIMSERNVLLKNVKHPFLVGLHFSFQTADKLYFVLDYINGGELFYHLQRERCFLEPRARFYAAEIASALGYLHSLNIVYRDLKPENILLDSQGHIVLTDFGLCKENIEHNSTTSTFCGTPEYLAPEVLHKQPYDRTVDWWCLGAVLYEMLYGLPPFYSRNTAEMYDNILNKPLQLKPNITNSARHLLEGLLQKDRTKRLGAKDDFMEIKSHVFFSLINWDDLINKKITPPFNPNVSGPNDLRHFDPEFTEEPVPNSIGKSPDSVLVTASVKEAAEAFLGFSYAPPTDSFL

[2] = species on record: Bos taurus; assay: Inhibition of bovine heart PKA at 1 uM; conditions: values are per cent of control
[3] = target: Protein kinase C alpha type (Homo sapiens, UniProt P17252); assay: Inhibition of His-tagged human PKCalpha expressed in Escherichia coli at 1 uM; conditions: values are per cent of control
[4] = target: RAC-alpha serine/threonine-protein kinase (Homo sapiens) (UniProt P31749); assay: Inhibition of human PKBalpha expressed in SF9 cells at 1 uM; conditions: values are per cent of control
[5] = target: T2, Serine/threonine-protein kinase Chk1 (Homo sapiens) (UniProt O14757); assay: Inhibition of His-tagged human CHK1 expressed in Escherichia coli at 1 uM; values are per cent of control
T2 sequence (whole entry): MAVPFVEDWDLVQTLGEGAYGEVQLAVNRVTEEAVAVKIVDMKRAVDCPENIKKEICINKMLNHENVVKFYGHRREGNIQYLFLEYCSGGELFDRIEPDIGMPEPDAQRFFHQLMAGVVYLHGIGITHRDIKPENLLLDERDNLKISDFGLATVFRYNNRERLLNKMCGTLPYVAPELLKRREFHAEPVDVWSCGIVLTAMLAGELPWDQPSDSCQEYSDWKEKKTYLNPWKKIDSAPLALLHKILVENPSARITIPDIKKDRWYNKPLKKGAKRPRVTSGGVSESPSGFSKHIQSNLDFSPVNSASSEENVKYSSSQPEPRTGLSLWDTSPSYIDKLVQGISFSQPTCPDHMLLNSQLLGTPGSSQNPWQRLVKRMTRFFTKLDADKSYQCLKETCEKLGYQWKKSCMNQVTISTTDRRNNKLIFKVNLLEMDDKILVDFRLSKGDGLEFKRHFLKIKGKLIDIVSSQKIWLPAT

[6] = target: Ribosomal protein S6 kinase beta-1 (Homo sapiens, UniProt P23443); assay: Inhibition of His-tagged human S6K1 expressed in Escherichia coli at 1 uM; values are per cent of control
[7] = target: Mitogen-activated protein kinase 8 (Homo sapiens) (UniProt P45983); assay: Inhibition of His-tagged human JNK1a1/SAPK1c expressed in Escherichia coli at 1 uM; values are per cent of control
[8] = species on record: Oryctolagus cuniculus; assay: Inhibition of MAPKAPK1b from rabbit skeletal muscle at 1 uM; assay type: tissue-based; conditions: Muscle tissue, values are per cent of control
[9] = target: T3, MAP kinase-activated protein kinase 5 (Homo sapiens) (UniProt Q8IW41); assay: Inhibition of His-tagged human PRAK expressed in Sf9 cells at 1 uM; values are per cent of control
T3 sequence (whole entry): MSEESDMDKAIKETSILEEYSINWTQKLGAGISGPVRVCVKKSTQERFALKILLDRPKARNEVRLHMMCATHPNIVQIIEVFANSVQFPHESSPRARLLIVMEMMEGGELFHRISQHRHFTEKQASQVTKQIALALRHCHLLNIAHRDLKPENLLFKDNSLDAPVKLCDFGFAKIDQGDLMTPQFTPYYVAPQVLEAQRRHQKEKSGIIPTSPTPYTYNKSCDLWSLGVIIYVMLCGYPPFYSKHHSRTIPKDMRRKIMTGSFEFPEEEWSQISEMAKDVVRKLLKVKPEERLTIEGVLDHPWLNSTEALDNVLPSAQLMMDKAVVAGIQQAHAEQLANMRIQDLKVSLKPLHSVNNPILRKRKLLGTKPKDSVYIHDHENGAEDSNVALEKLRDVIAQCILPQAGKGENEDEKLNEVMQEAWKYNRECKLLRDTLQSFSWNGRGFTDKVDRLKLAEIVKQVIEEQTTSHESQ

[10] = target: Mitogen-activated protein kinase 14 (Homo sapiens) (UniProt Q16539); assay: Inhibition of His-tagged human SAPK2a/p38 expressed in Escherichia coli at 1 uM; values are per cent of control
[11] = target: Ribosomal protein S6 kinase alpha-5 (Homo sapiens, UniProt O75582); assay: Inhibition of His-tagged human MSK1 expressed in Sf9 cells at 1 uM; values are per cent of control
[12] = species on record: Oryctolagus cuniculus; assay: Inhibition of PHK from rabbit skeletal muscle at 1 uM; assay type: tissue-based; conditions: Muscle tissue, values are per cent of control
[13] = target: T4, Mitogen-activated protein kinase 12 (Homo sapiens) (UniProt P53778); assay: Inhibition of His-tagged human SAPK3/p38gamma expressed in Escherichia coli at 1 uM; values are per cent of control
T4 sequence (whole entry): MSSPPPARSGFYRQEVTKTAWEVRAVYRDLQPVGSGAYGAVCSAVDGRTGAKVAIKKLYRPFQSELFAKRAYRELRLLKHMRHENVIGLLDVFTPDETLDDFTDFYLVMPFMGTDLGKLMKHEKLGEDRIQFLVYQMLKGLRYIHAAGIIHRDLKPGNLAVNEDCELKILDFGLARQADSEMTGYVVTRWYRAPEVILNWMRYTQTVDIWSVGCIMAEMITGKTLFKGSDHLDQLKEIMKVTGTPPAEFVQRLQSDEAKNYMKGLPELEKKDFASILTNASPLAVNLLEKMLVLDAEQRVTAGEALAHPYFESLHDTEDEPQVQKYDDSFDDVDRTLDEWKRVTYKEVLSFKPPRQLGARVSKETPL

[14] = target: Rho-associated protein kinase 2 (Rattus norvegicus) (UniProt Q62868); assay: Inhibition of rat ROCK2 expressed in Sf9 cells at 1 uM; conditions: values are per cent of control
[15] = target: 3-phosphoinositide-dependent protein kinase 1 (Homo sapiens) (UniProt O15530); assay: Inhibition of His-tagged human PDK1 expressed in Sf21 cells at 1 uM; conditions: values are per cent of control
[16] = target: Mitogen-activated protein kinase 1 (Homo sapiens) (UniProt P28482); assay: Inhibition of His-tagged human MAPK2/ERK2 expressed in Escherichia coli at 1 uM; values are per cent of control
[17] = species on record: Rattus norvegicus; assay: Inhibition of rat liver AMPK at 1 uM; conditions: values are per cent of control

Chain of Rho-associated protein kinase 2 (Rattus norvegicus) (Q62868 whole entry, looked up): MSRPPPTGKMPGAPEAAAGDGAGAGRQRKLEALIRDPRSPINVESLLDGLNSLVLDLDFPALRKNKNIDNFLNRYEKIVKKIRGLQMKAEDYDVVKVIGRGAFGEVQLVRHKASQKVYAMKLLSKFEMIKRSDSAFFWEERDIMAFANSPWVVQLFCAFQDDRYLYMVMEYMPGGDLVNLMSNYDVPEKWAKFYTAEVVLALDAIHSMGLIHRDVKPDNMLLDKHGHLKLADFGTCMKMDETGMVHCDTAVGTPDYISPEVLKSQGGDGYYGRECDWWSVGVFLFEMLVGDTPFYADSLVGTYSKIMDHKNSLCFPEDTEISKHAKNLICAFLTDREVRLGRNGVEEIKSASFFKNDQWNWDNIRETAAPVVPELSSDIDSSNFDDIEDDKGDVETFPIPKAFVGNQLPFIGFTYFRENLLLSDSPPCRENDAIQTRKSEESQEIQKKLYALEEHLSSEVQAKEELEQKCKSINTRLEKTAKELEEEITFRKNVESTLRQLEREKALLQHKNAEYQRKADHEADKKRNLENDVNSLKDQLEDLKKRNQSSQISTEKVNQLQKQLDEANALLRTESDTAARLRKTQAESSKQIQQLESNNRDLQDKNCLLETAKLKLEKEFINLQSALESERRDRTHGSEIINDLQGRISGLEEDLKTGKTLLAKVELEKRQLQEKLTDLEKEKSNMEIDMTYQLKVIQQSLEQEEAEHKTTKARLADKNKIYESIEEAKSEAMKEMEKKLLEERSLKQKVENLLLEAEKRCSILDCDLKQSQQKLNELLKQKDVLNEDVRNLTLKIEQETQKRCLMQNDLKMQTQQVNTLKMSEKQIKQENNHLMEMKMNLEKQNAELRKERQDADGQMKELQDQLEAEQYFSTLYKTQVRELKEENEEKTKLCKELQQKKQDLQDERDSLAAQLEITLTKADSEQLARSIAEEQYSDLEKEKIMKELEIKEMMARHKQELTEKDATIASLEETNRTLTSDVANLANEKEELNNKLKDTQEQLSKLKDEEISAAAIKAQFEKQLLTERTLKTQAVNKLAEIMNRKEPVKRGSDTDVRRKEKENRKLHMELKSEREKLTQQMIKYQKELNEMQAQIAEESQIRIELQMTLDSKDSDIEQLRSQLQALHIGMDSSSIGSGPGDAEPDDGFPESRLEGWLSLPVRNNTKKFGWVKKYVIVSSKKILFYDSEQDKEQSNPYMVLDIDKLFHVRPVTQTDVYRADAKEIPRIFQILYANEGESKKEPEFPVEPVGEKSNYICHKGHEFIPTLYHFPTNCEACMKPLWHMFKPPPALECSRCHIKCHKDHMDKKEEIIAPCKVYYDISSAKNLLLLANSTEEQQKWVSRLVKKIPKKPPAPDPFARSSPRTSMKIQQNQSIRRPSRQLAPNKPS
Chain of Ribosomal protein S6 kinase beta-1 (P23443 whole entry, looked up): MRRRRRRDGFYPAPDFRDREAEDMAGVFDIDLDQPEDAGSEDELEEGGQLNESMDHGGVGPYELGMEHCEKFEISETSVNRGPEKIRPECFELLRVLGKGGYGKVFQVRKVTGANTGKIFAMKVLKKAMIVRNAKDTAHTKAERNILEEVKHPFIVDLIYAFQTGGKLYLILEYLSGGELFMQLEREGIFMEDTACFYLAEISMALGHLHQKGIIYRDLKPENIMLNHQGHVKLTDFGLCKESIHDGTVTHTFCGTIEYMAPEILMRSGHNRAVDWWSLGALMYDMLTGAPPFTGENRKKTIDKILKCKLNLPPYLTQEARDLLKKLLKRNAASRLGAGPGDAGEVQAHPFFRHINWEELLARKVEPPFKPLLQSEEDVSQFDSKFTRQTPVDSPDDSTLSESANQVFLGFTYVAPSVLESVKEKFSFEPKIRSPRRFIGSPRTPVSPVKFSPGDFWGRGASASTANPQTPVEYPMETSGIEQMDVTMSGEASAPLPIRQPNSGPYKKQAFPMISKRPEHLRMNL
Chain of RAC-alpha serine/threonine-protein kinase (Homo sapiens) (P31749 whole entry): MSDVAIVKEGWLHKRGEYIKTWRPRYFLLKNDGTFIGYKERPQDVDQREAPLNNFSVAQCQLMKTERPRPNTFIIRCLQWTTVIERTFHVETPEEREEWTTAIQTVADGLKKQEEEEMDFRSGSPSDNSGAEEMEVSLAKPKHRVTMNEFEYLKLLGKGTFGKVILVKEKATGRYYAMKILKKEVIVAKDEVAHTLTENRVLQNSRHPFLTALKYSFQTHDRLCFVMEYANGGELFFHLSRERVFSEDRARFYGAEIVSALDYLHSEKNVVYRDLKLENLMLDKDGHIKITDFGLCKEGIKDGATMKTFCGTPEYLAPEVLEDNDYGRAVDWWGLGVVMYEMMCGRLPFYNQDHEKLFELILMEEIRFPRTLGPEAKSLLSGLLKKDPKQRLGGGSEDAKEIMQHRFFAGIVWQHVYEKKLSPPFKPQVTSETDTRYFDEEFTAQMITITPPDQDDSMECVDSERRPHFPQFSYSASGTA
Chain of Mitogen-activated protein kinase 8 (Homo sapiens) (P45983 whole entry): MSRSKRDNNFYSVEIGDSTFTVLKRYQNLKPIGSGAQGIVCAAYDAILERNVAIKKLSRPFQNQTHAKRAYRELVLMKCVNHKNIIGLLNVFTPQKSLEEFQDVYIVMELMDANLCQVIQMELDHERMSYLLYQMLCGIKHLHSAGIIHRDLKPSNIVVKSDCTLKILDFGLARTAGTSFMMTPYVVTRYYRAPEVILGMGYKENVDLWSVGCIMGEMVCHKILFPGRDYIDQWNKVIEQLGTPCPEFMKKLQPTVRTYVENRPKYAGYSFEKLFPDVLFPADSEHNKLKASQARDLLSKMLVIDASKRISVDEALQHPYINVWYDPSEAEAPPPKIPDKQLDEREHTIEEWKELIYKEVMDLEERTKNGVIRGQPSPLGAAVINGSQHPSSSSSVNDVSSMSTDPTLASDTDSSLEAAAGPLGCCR
Chain of Mitogen-activated protein kinase 1 (Homo sapiens) (P28482 whole entry): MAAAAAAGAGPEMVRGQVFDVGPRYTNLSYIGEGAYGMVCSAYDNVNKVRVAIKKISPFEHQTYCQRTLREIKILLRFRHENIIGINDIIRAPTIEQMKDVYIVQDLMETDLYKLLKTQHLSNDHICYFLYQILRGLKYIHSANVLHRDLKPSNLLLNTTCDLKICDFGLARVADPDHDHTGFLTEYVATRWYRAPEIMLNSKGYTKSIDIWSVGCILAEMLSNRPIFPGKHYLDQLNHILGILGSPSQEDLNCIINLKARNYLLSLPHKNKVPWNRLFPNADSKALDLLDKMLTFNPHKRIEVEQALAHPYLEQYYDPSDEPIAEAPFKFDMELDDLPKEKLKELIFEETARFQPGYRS
Chain of 3-phosphoinositide-dependent protein kinase 1 (Homo sapiens) (O15530 whole entry, looked up): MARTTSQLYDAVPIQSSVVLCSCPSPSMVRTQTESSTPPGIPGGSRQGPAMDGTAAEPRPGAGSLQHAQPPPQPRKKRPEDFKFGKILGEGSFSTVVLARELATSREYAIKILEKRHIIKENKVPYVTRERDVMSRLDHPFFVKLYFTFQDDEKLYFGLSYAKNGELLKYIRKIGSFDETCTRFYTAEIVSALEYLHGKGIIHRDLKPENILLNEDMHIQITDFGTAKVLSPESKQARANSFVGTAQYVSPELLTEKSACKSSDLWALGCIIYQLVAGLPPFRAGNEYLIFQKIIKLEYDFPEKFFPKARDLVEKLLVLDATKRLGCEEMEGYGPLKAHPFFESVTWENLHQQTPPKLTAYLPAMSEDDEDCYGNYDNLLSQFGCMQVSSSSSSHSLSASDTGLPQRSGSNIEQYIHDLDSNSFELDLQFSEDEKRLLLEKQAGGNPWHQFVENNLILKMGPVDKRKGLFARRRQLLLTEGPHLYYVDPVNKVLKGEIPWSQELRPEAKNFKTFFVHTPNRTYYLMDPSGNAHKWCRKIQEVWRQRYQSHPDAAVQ
Chain of Mitogen-activated protein kinase 14 (Homo sapiens) (Q16539 whole entry): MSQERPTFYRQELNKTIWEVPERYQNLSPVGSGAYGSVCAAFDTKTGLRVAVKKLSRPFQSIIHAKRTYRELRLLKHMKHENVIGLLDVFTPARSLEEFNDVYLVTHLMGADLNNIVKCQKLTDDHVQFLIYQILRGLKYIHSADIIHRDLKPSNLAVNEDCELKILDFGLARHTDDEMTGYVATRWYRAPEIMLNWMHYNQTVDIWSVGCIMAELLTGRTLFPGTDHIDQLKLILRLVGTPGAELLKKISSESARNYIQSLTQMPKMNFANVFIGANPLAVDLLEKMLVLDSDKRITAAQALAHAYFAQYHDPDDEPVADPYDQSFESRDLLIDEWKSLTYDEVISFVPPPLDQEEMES
Chain of Ribosomal protein S6 kinase alpha-5 (O75582 whole entry, looked up): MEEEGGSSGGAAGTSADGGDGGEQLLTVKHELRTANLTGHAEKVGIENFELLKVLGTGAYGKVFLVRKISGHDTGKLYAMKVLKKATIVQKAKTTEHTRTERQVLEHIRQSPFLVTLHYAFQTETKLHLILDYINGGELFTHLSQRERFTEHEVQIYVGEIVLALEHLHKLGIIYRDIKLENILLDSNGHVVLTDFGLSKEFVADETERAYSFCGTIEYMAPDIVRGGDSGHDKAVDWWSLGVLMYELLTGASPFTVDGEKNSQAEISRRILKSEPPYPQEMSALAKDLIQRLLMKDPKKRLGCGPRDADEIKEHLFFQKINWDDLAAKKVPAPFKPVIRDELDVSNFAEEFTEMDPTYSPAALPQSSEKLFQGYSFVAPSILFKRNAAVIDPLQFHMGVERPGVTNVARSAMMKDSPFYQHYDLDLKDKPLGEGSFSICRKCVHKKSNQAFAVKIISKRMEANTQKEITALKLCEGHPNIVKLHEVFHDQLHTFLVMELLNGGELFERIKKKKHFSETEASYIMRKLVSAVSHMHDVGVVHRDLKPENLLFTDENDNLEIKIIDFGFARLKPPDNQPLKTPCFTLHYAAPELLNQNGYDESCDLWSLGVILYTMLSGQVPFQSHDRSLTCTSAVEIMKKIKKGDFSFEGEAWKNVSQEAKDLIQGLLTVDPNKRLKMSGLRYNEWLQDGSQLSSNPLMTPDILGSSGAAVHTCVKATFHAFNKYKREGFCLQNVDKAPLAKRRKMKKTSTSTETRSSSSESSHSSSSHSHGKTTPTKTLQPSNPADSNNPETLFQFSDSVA

Compound	residual activity [1] [%]	residual activity [2] [%]	residual activity [3] [%]	residual activity [4] [%]	residual activity [5] [%]	residual activity [6] [%]	residual activity [7] [%]	residual activity [8] [%]	residual activity [9] [%]	residual activity [10] [%]	residual activity [11] [%]	residual activity [12] [%]	residual activity [13] [%]	residual activity [14] [%]	residual activity [15] [%]	residual activity [16] [%]	residual activity [17] [%]
COC[C@H]1OC(=O)c2coc3c2[C@@]1(C)C1=C(C3=O)[C@@H]2CCC(=O)[C@@]2(C)C[C@H]1OC(C)=O [WORTMANNIN]	101	97	100	96	99	106	97	92	85	86	99	100	75	91	88	90	106
Cn1cc(C2=C(c3cn(CCCSC(=N)N)c4ccccc34)C(=O)NC2=O)c2ccccc21 [BISINDOLYLMALEIMIDE IX]	21	70	3	73	42	6	95	2	96	84	2	57	92	92	84	97	42
Cn1cc(C2=C(c3c4n(c5ccccc35)CCC(CN)C4)C(=O)NC2=O)c2ccccc21 (stereo unspecified)	34	90	1	104	50	12	103	5	101	117	5	60	116	103	122	106	71
CO[C@H]1C[C@@H]2CC[C@@H](C)[C@@](O)(O2)C(=O)C(=O)N2CCCC[C@H]2C(=O)O[C@H]([C@H](C)C[C@@H]2CC[C@@H](O)[C@H](OC)C2)CC(=O)[C@H](C)/C=C(\C)[C@@H](O)[C@@H](OC)C(=O)[C@H](C)C[C@H](C)/C=C/C=C/C=C/1C	108	104	99	91	102	109	98	95	74	93	104	103	100	92	110	90	106
O=C1NC(=O)C(c2c[nH]c3ccccc23)=C1c1c[nH]c2ccccc12	101	93	57	101	91	87	95	54	96	90	56	90	83	100	95	86	96
Cn1cc(C2=C(c3cn(CCCN)c4ccccc34)C(=O)NC2=O)c2ccccc21	28	94	14	98	71	29	95	4	102	115	13	58	107	106	107	105	60
CN1C(=O)C(c2c[nH]c3ccccc23)=C(c2c[nH]c3ccccc23)C1=O	96	95	104	91	104	110	100	92	85	101	103	100	99	107	109	101	102
NCCCn1cc(C2=C(c3c[nH]c4ccccc34)C(=O)NC2=O)c2ccccc21	26	87	7	99	40	18	100	2	89	104	9	20	116	89	69	107	23
